The source made the active and inactive calls. No cut-off for these calls is given here.
Key:
[1] = system: HepG2; assay: Cytotoxicity against human HepG2 cells after 24 hrs by SRB assay; type: functional, cell-based; details: HepG2, 24 h
[2] = system: HCT-116; assay: Cytotoxicity against human HCT116 cells after 24 hrs by SRB assay; type: functional, cell-based; details: HCT-116, 24 h
[3] = Cytotoxicity against human Caco cells after 24 hrs by SRB assay; type: functional, cell-based
[4] = system: MCF7; assay: Cytotoxicity against human MCF7 cells after 24 hrs by SRB assay; type: functional, cell-based; details: MCF7, 24 h
[5] = system: WI-38; assay: Cytotoxicity against human WI38 cells after 24 hrs by SRB assay; type: cell-based; details: WI-38, 24 h
[6] = target: T1, Epidermal growth factor receptor (Homo sapiens, UniProt P00533); assay: Inhibition of EGFR in human HepG2 cells; type: cell-based
T1 sequence (P00533 whole entry): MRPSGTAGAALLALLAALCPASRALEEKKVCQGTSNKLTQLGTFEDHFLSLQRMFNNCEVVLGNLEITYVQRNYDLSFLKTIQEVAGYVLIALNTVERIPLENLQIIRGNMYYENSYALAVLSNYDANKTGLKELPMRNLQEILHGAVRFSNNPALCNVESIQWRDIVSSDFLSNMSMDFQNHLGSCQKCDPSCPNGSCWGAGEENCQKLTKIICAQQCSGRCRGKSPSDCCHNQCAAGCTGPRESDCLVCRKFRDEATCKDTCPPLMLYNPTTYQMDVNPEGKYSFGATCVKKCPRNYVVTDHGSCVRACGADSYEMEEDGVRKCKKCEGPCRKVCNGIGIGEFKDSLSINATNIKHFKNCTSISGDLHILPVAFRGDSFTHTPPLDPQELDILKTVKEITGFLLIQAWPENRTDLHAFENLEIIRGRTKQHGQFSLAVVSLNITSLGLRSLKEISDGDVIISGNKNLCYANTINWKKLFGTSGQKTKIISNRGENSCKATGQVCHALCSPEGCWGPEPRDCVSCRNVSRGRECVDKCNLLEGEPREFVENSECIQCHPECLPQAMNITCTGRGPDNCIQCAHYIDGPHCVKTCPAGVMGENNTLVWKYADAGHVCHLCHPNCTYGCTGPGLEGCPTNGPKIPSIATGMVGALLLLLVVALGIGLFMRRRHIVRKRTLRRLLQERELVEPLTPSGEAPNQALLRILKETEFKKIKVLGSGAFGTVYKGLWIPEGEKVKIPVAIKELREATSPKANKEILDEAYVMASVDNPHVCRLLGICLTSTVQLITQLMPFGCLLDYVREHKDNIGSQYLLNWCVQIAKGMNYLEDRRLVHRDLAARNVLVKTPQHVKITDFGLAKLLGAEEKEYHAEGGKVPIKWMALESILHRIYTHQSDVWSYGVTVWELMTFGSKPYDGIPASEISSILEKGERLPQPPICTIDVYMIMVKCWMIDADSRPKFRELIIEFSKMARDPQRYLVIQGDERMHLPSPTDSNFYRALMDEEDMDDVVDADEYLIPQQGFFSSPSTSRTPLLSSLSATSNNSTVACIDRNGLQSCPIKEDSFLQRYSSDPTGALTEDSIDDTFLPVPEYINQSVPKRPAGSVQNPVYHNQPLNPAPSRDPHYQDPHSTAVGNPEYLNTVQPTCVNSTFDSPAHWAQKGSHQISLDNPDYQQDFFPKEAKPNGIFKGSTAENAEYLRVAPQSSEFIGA

[7] = target: Epidermal growth factor receptor (Homo sapiens, UniProt P00533, L858R); assay: Inhibition of recombinant human EGFR L858R mutant expressed in baculovirus infected insect cells preincubated for 5 mins followed by ATP addition and measured after 30 mins by HTRF assay; type: cell-based
Epidermal growth factor receptor (Homo sapiens, UniProt P00533, L858R), sequence (P00533 25-1210 L858R limits assumed): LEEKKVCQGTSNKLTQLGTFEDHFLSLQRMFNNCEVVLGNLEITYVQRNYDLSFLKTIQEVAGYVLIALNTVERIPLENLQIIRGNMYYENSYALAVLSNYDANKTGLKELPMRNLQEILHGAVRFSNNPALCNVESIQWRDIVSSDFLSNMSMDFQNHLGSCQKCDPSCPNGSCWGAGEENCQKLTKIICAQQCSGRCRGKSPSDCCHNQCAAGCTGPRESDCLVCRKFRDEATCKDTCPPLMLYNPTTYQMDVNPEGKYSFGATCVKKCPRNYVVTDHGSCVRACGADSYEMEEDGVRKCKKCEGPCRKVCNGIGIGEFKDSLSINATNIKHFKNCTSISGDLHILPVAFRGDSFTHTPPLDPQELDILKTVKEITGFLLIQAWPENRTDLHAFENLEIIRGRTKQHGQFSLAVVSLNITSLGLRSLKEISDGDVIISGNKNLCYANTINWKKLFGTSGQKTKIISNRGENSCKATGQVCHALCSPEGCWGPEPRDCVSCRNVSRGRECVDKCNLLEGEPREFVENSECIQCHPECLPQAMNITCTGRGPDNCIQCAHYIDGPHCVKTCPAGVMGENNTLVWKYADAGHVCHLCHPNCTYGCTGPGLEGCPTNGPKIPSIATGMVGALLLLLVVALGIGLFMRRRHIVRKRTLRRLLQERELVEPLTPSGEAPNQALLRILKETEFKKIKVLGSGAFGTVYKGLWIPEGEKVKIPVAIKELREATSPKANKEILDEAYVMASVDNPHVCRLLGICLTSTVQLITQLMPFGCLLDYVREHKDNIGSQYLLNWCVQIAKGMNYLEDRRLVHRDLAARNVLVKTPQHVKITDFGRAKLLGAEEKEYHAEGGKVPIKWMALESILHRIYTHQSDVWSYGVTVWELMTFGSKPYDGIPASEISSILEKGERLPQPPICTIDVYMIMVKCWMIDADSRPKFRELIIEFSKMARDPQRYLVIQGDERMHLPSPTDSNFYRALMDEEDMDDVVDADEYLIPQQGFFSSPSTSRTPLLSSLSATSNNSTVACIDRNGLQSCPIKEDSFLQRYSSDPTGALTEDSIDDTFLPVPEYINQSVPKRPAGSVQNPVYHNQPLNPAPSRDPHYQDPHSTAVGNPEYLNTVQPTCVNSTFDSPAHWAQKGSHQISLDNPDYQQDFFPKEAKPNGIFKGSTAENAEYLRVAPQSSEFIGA

[8] = target: Epidermal growth factor receptor (Homo sapiens, UniProt P00533, T790M); assay: biochemical; type: cell-based, Sf21
Epidermal growth factor receptor (Homo sapiens, UniProt P00533, T790M), sequence (P00533 25-1210 T790M limits assumed): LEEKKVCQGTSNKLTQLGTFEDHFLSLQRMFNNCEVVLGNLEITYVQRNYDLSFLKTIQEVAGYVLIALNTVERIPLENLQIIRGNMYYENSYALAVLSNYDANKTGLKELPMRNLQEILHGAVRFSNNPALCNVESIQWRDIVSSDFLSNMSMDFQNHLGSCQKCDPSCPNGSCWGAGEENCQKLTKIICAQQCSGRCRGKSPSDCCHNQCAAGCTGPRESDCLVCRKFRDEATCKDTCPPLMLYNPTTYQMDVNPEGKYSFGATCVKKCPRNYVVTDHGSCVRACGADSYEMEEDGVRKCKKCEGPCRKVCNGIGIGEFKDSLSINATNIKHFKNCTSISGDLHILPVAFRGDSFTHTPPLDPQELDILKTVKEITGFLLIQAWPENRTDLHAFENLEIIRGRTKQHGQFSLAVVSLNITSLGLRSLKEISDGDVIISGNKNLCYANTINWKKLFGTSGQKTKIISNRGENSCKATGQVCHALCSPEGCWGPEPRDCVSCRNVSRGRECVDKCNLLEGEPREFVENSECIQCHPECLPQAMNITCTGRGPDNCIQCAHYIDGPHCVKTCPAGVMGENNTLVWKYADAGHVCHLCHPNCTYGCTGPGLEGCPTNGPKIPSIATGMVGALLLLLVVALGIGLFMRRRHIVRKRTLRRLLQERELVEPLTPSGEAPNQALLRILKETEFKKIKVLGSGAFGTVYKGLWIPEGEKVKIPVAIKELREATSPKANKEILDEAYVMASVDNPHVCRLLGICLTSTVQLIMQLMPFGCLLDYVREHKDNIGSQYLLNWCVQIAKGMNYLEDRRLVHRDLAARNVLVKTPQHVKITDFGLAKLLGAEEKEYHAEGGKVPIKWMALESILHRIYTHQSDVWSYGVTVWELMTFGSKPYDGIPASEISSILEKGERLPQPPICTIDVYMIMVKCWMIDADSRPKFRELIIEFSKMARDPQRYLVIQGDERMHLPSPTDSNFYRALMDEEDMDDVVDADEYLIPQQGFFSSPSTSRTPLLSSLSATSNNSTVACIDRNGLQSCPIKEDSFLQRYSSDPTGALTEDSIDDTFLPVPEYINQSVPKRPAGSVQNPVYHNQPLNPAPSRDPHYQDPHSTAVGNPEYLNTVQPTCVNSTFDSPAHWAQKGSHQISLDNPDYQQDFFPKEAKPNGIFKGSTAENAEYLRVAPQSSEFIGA

[9] = target: Vascular endothelial growth factor receptor (Homo sapiens, UniProt P17948+P35916+P35968); type: cell-based; details: sf9
Description: Inhibition of GST-tagged recombinant human VEGFR (789-end) expressed in baculovirus infected Sf9 insect cells preincubated for 5 mins followed by ATP addition and measured after 30 mins by HTRF assay

[10] = target: Receptor tyrosine-protein kinase erbB-2 (Homo sapiens, UniProt P04626); assay: Inhibition of recombinant human GST-tagged HER2 (676-end) expressed in baculovirus infected Sf9 insect cells preincubated for 5 mins followed by ATP addition and measured after 30 mins by HTRF assay
Receptor tyrosine-protein kinase erbB-2, sequence (P04626 whole entry): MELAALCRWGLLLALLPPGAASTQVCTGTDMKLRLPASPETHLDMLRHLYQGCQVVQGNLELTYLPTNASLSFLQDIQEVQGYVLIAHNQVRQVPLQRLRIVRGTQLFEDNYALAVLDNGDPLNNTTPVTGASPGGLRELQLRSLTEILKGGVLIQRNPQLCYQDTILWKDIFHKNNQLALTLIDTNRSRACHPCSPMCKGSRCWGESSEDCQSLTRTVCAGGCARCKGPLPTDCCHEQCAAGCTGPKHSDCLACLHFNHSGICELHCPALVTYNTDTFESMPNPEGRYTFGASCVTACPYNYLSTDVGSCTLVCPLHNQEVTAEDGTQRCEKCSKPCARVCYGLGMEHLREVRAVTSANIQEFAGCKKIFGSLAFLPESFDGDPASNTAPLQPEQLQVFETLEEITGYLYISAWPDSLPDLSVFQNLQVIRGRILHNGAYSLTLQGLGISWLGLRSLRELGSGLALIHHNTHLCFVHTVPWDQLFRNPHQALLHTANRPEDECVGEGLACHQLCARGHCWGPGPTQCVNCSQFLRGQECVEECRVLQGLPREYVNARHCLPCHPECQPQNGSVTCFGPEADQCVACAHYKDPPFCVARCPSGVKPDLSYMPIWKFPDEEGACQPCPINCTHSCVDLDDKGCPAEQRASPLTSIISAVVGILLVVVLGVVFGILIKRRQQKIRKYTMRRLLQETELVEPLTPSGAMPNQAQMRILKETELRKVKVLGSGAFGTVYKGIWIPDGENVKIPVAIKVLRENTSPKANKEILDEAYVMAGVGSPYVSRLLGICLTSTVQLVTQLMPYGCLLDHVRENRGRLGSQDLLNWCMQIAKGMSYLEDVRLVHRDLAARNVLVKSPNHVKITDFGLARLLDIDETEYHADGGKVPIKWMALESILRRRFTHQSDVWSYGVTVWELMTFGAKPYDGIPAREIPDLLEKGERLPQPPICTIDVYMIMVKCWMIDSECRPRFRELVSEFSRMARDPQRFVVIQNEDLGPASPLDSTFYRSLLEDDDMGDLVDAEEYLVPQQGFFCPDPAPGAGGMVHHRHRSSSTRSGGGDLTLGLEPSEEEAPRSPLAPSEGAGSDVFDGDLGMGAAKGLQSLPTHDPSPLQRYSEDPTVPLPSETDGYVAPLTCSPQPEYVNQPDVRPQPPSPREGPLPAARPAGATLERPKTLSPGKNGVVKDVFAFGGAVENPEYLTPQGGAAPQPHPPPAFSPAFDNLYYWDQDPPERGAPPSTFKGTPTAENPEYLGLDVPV

[11] = Inhibition of recombinant human FGFR preincubated for 5 mins followed by ATP addition and measured after 30 mind by HTRF assay
[12] = target: T1, Epidermal growth factor receptor; assay: Inhibition of EGFR in human HepG2 cells assessed as suppression of EGFR phosphorylation after 8 hrs by Western blot analysis; type: cell-based
[13] = target: T1, Epidermal growth factor receptor; assay: Inhibition of EGFR in human HepG2 cells assessed as suppression of ERK phosphorylation up to 2 uM after 8 hrs by Western blot analysis; type: cell-based
[14] = system: HepG2; assay: Cell cycle arrest in human HepG2 cells assessed as accumulation of cells at G0/G1 phase at 10 uM after 24 hrs by flow cytometric analysis (reference value: 52.31%); type: functional
[15] = system: HepG2; assay: Cell cycle arrest in human HepG2 cells assessed as accumulation of cells at S phase at 10 uM after 24 hrs by flow cytometric analysis (reference value: 31.31%); type: functional
[16] = system: HepG2; assay: Cell cycle arrest in human HepG2 cells assessed as accumulation of cells at G2/M phase at 10 uM after 24 hrs by flow cytometric analysis (reference value: 16.38%); type: functional
[17] = system: HepG2; assay: Cell cycle arrest in human HepG2 cells assessed as accumulation of cells at pre-G1 phase at 10 uM after 24 hrs by flow cytometric analysis (reference value: 2.04%); type: functional
[18] = system: HepG2; assay: Induction of apoptosis in human HepG2 cells assessed as viable cells at 10 uM after 24 hrs by Annexin V-FITC/ propidium iodide staining-based flow cytometric analysis (reference value: 96.09%); type: functional; details: HepG2, 24 h, read-out: Activity
[19] = system: HepG2; assay: Induction of apoptosis in human HepG2 cells assessed as early apoptotic cells at 10 uM after 24 hrs by Annexin V-FITC/ propidium iodide staining-based flow cytometric analysis (reference value: 0.51%); type: functional
[20] = system: HepG2; assay: Induction of apoptosis in human HepG2 cells assessed as late apoptotic cells at 10 uM after 24 hrs by Annexin V-FITC/ propidium iodide staining-based flow cytometric analysis (reference value: […]); type: functional
[21] = system: HepG2; assay: Induction of apoptosis in human HepG2 cells assessed as necrotic cells at 10 uM after 24 hrs by Annexin V-FITC/ propidium iodide staining-based flow cytometric analysis (reference value: 1.28%); type: functional

| SMILES | IC50 [1] [µM] | IC50 [2] [µM] | IC50 [3] [µM] | IC50 [4] [µM] | IC50 [5] [µM] | also measured |
| --- | --- | --- | --- | --- | --- | --- |
| O=C1Nc2ccc(S(=O)(=O)N3CCOCC3)cc2/C1=N/c1ccc(/N=C2\C(=O)Nc3ccc(S(=O)(=O)N4CCOCC4)cc32)cc1 | 8.84 | 7.48 | 9.16 | 10.9 | 203 | IC50 [6]: 1180 nM |
| O=C1Nc2ccc(S(=O)(=O)N3CCOCC3)cc2/C1=N/c1ccc(Br)cc1 | 11.9 | 15.3 | 29.4 | 44.8 | 372 | – |
| O=C1Nc2ccc(S(=O)(=O)N3CCOCC3)cc2C1=O | 28.6 | 60 | 45.6 | 67.9 | 588 | – |
| O=S(=O)(c1ccc2[nH]c3nc4ccccc4nc3c2c1)N1CCOCC1 | 27.2 | 19.2 | 18.9 | 40.8 | 418 | – |
| COc1ccc(C2=C(C#N)C3=NC4=Nc5ccc(S(=O)(=O)N6CCOCC6)cc5C4=NC3C(O)=C2C#N)cc1 (stereo not drawn) | 7.3 | 9.73 | 7.24 | 11.9 | 324 | IC50 [6]: 108 nM |
| N#CCC(=O)N/N=C1\C(=O)Nc2ccc(S(=O)(=O)N3CCOCC3)cc21 | 7.53 | 10.3 | 9.66 | 27.7 | 302 | IC50 [6]: 23 nM; IC50 [7]: 33.8 nM; IC50 [8]: 137 nM; IC50 [9]: 276 nM; IC50 [10]: 240 nM; IC50 [11]: 378 nM; inhibition [12]: Dose-dependent effect; inhibition [13]: Active; Activity [14]: 40.31%; Activity [15]: 15.58%; Activity [16]: 44.11%; Activity [17]: 14.09%; viability at 10 µM [18]: 83.6%; Activity [19]: 3.17%; Activity [20]: 7.51%; Activity [21]: 3.41% |
| COc1ccc(-c2c(C#N)c(N)n(/N=C3\C(=O)Nc4ccc(S(=O)(=O)N5CCOCC5)cc43)c(=O)c2C#N)cc1 | 15 | 18.1 | 10.3 | 33.4 | 224 | IC50 [6]: 1930 nM |
| Cc1ccc(S(=O)(=O)N/N=C2\C(=O)Nc3ccc(S(=O)(=O)N4CCOCC4)cc32)cc1 | 24.7 | 23.4 | 14.6 | 38.4 | 261 | – |
| Cc1ccc(/N=C2\C(=O)Nc3ccc(S(=O)(=O)N4CCOCC4)cc32)cc1 | 12.8 | 18.9 | 33 | 55.9 | 309 | – |
| COC(=O)c1ccccc1/N=C1\C(=O)Nc2ccc(S(=O)(=O)N3CCOCC3)cc21 | 14 | 18.7 | 23.5 | 31.4 | 228 | – |
| O=C1Nc2ccc(S(=O)(=O)N3CCOCC3)cc2/C1=N/c1ccc(Cl)cc1 | 11.8 | 24.3 | 23.7 | 44.3 | 468 | – |
| C#Cc1cccc(Nc2ncnc3cc(OCCOC)c(OCCOC)cc23)c1 [ERLOTINIB] | – | – | – | – | – | IC50 [11]: 30 nM |
| CS(=O)(=O)CCNCc1ccc(-c2ccc3ncnc(Nc4ccc(OCc5cccc(F)c5)c(Cl)c4)c3c2)o1 [LAPATINIB] | 11.7 | 5.92 | 12.1 | 5.02 | – | – |
| O=C1Nc2ccc(S(=O)(=O)N3CCOCC3)cc2/C1=N/c1ccc(O)cc1 | 10.4 | 27.3 | 17.8 | 52.7 | 259 | IC50 [6]: 751 nM |
| CC(=O)N/N=C1\C(=O)Nc2ccc(S(=O)(=O)N3CCOCC3)cc21 | 27.5 | 29 | 18.4 | 56 | 325 | – |
| CC(=O)c1cccc(/N=C2\C(=O)Nc3ccc(S(=O)(=O)N4CCOCC4)cc32)c1 | 28.6 | 29 | 21.4 | 39.2 | 177 | – |
| O=C1Nc2ccc(S(=O)(=O)N3CCOCC3)cc2/C1=N/Nc1ccccc1 | 15.6 | 10.5 | 20 | 30.3 | 262 | IC50 [6]: 46 nM; Activity [14]: 38.92%; Activity [15]: 14.77%; Activity [16]: 48.31%; Activity [17]: 16.46%; viability at 10 µM [18]: 81.4%; Activity [19]: 4.28%; Activity [20]: 9.49%; Activity [21]: 2.69% |
| N=c1oc2ccccc2cc1C(=O)N/N=C1\C(=O)Nc2ccc(S(=O)(=O)N3CCOCC3)cc21 | 7.82 | 6.75 | 8.21 | 20.8 | 132 | IC50 [6]: 205 nM |
| COc1cccc2c1C(=O)c1c(O)c3c(c(O)c1C2=O)C[C@@](O)(C(=O)CO)C[C@@H]3O[C@H]1C[C@H](N)[C@H](O)[C@H](C)O1 [DOXORUBICIN] | 7.46 | 8.29 | 5.91 | – | – | – |
| O=C1Nc2ccc(S(=O)(=O)N3CCOCC3)cc2/C1=N/NS(=O)(=O)c1ccccc1 | 23.9 | 13.3 | 16.4 | 25.3 | 302 | – |
| O=C1Nc2ccc(S(=O)(=O)N3CCOCC3)cc2/C1=N/c1cccc(C(F)(F)F)c1 | 14.3 | 15.9 | 21.2 | 41.1 | 226 | – |
| N/N=C1\C(=O)Nc2ccc(S(=O)(=O)N3CCOCC3)cc21 | 32.4 | 36.3 | 49.6 | 46.8 | 391 | – |
| O=C1Nc2ccc(S(=O)(=O)N3CCOCC3)cc2/C1=N/c1ccc(C(=O)O)cc1 | 23.1 | 23.6 | 25.7 | 26.7 | 313 | – |
| O=C1Nc2ccc(S(=O)(=O)N3CCOCC3)cc2/C1=N/NC(=O)c1ccccc1 | 18.1 | 28.9 | 36.2 | 414 | 295 | – |
